According to patent US20100256332A1, “GLP-1 Fusion Peptides, Their Production and Use” (BIOCOMPATIBLES UK LTD, priority 2007, published 2010):
Where no end group is shown, it is not given here.

What was measured:
[1] = In vitro human plasma stability of GLP-1 CM peptides; settings: 20 ng/ml peptide, 37° C., 3 hours, GLP-1 (Active) ELISA, versus native GLP-1(7-37)
Description: Dipeptidylpeptidase activity of the plasma was inhibited by an DPP-IV inhibitor (#DPP4, Biotrend).

[2] = system: BALB/c mice; experiment: Immunogenicity study in BALB/c mice
Procedure: The trial was done in BALB/c mice receiving 5 repeated injections (70 μg peptide/dose, i.v.) over 22d (n=5).
Spleens of the treated and control mice were explanted, T-cells isolated and stimulated with increasing amounts of antigene. Proliferative recall response is measured.

[3] = system: C57BL/KsJ@Rj-db (db/db) mice; experiment: Long-term treatment of db/db mice; format: in vivo, mouse; settings: for non fasted blood glucose level 1h after s.c. peptide injection, compared to control: tail bleed 1 hour after injection; for fasted blood glucose level 18h after peptide injection: 12-hour overnight fast, 18 hours after s.c. injection; for food consumption: weekly, 122 day treatment period, compared to the control
Description: The regimen was continued for 18 weeks. From week 12 to 18 treatment was done twice a day in 6 of 12 animals per group. Various parameters of the mice were investigated, i.e. health status (1), body weight (2), food consumption (3), blood glucose (4), glucose tolerance test (5), insulin data (6), glycosylated hemoglobin (7), pathology (8), and restimulation of T cells (9). • Health status (1) was good in all groups, no side effects of the treatment have been seen. • Body weight (2) was lower in all treated groups after 18 weeks of treatment (FIG. 9). […] The relative body weight increase of 12 animals per group after a treatment of 122 days is plotted. […] Non-fasted blood glucose level (1 hour after peptide injection) is shown in FIG. 11A, i.e. the effect of a treatment with saline (A), CM1 (B), CM3-ANA01 (C) or exendin (D) on the non-fasted blood glucose levels. Blood glucose was measured from a tail bleed 1 hour after s.c. injection of saline (A) or the peptides CM1 (B), CM3-ANA01 (C) or exendin (D) in a concentration of 24 nmol/kg. Compared to control non fasted blood glucose level 1h after s.c. peptide injection is reduced to 55% in group B, 51% in group C and 60% in group D (FIG. 11B). The blood glucose decrease in the treated groups treated groups is highly significant (p<0.0001). Fasted blood glucose level (18 hours after peptide injection) are shown in FIG. 11C, i.e. the effect of a treatment with saline (A), CM1 (B), CM3-ANA01 (C) or exendin (D) on the fasted blood glucose levels. Blood glucose was measured from a tail bleed after a 12-hour overnight fast 18 hours after s.c. injection of the test substances. Fasted blood glucose level 18h after peptide injection is reduced in the CM1 and CM3-ANA01 group. • An i.p. glucose tolerance test (5) (IPGTT) was conducted after 8 weeks of treatment on mice of the groups A-D. […] Blood glucose has been further on determined 15, 30, 45, 60, 90 and 120 minutes after glucose injection. A significant normalization of glucose tolerance was shown in all treated groups (FIG. 12A). In FIG. 12A absolute blood glucose levels during an i.p. glucose tolerance test (IPGTT) after 8 weeks of treatment with saline (A), CM1 (B), CM3-ANA01 (C) or exendin (D) is shown (mean values of each group (n=12)). • Another presentation of the data presented by FIG. 12A of the blood glucose tolerance test is given in FIG. 12B. Relative blood glucose levels during an i.p. glucose tolerance test (IPGTT) after 8 weeks of treatment with saline (A), CM1 (B), CM3-ANA01 (C) or exendin (D) normalized on the starting blood glucose level (100%). • Insulin levels (6) were determined from mice after a 12 hour overnight fastening period. […] Directly after sampling blood samples have been treated with a protease inhibitor cocktail to avoid insulin degradation. The serum was analysed for insulin with the Insulin Mouse Ultrasensitive ELISA (Cat.# EIA-3440, DRG). Significance has been determine with Student's t-test. • Glycosylated hemoglobin (7) is formed by excess plasma glucose binding to hemoglobin in red blood cells (RBC). Since RBCs have a 120-day lifespan, measurements of the glycolylated hemoglobin gives a longer-term indication of glucose control and is seen as a better indicator than plasma glucose levels. Whole blood was collected from the retro-orbital sinus and analyzed with the Enzymatic HbA1c Test Kit (#DZ121A, Diazyme) to determine the glycosylated hemoglobin levels. […] The mean value of all animals per group (n=12) is given. […] Therefore, the spleen of 8 animals per group was explanted, T-cells isolated and restimulated with different concentrations of the corresponding test substance. Compared to non-treated controls no significant increase in peptide restimulated T-cell proliferation was found. […] The stimulation index (SI) was calculated as the quotient of the response in the presence of the respective peptide and the response in the absence of peptides. […]

[4] = system: diabetic C57BL/KsJ@Rj-db (db/db) mice; experiment: Dose-efficacy study in diabetic mice; format: in vivo, mouse; settings: for fall in plasma glucose @1 h: 1 hour after single s.c. injection of 1.1-3.0 nmol peptide; for fall in plasma glucose @1 h / fall in plasma glucose @4 h: versus control; for fall in plasma glucose @4 h: 4 hours after single s.c. injection of 1.1-3.0 nmol peptide; for plasma glucose ED50: single s.c. dose, percentage decrease of blood glucose at 1h
Procedure: A sixth group was treated with saline only. 7 animals were treated per group. Blood glucose was determined from tail bleeds directly before, 1 hour and 4 hours after injection.
The results are shown in dose-response curves according to FIG. 8 (FIG. 8A (GLP-1), FIG. 8B (CM1), FIG. 8C(CM3) and FIG. 8D (CM3-ANA01)). For every test substance a graph was prepared with the percentage difference of the blood glucose in relation to the start value for the different concentrations. […] Both models are sigmoidal fit models suitable for dose response evaluation. For every peptide the plasma glucose ED50 values (single s.c. dose in μg/mouse) have been determined from the percentage decrease of blood glucose.
The fall in plasma glucose and the corresponding significance levels are given for the time period 1 hour (@1 h) and 4 hours (@4h) after peptide injection. Differences have been observed in the long-term efficacy of the peptides.

[5] = system: type II diabetic mice (C57BUKs-Lepr db/db); experiment: In vivo bioactivity in type II diabetic mice; design: species or system mouse; settings: 5 μg peptide s.c. twice a day, Day 2, 4, 7, 10, overnight fasted
Procedure: 11-week-old type II diabetic mice (C57BUKs-Lepr^db/db, Harlan) were treated with 5 μg peptide by subcutaneous injection twice a day at 9 a.m. and 5 p.m. (n=5 per group).
Blood glucose was measured before (day 0) and after treatment with GLP^CM peptides (Day 2, 4, 7, 10) at 10 a.m. after an overnight fastening period. Data were presented in relation to blood glucose levels measured at day 0.
Best results were obtained with recombinant SEQ ID No.:6 (CM1) and synthetic SEQ ID No.:8 (CM3). In FIG. 5 (y-axis) the relative effect of the treatment is shown. Blood glucose at day=0 was set to 1. Untreated animals undergo continuous increase in blood glucose level over time, whereas animals treated with inventive peptides display grosso modo a continuous decrease of the blood glucose level over time.

[6] = human, 1 μM, pH 7.8
Description: (§1) Results are from triplicates in at least two independent experiments.

[7] = In vitro plasma stability, kinetic test method; settings: 1 μM peptide, 10% human plasma, 37° C., 0-9 hours
Description: as §1

[8] = 5 repeated injections, 70 μg peptide/dose, i.v., over 22d, BALB/c mice

Substance	stability in human plasma in vitro (active GLP) [1]	T-cell antibody response and antibody titer [2, 8]	toxicity [2, 8]	clinically relevant immunogenicity ([2]; immunogenicity study in mice)	non fasted blood glucose level 1h after s.c. peptide injection, compared to control ([3]; 24 nmol/kg s.c.)	fasted blood glucose level 18h after peptide injection [3]	food consumption ([3]; p<0.001)	fall in plasma glucose @1 h [4]	fall in plasma glucose @4 h [4]	plasma glucose ED50 [4]	anti-hyperglycemia effect (blood glucose in relation to day 0) ([5]; listed as SEQ ID No.:6)	anti-hyperglycemia effect (blood glucose in relation to day 0) ([5]; listed as recombinant SEQ ID No.:6)	active GLP-1 left after 9h plasma exposure, % of the 0 h value [6]	relative body weight increase ([3]; after a treatment of 122 days, 24 nmol/kg s.c., p<0.001)	in vitro plasma stability, comparison in words [7]
GLP-1 (7-37)-IP2-RR-GLP1(7-37) [CM1]	significantly stabilized	minimal	no toxicity	absence of any clinically relevant immunogenicity	55%	reduced	significantly lower	50% ± 14% @1 h	0% @4 h	0.61 μg/mouse	anti-hyperglycemia effect	Best results			
HAEGTFTSDVSSYLEGQAAKEFIAWLVKGRGRRDFPEEVAIAEELG [CM3, GLP-1(7-37)-IP2]	significantly stabilized														
HAEGTFTSDVSSYLEGQAAKEFIAWLVKGRGAADFPEEVAIAEELG [CM3-ANA01]					51%	reduced	significantly lower	62% ± 12% @1 h	18% ± 11% @4 h	0.55 μg/mouse			84%	significantly lower	higher plasma stability than CM3
